Data taken from ChEMBL document CHEMBL4725249, “Quinazoline Based HSP90 Inhibitors: Synthesis, Modeling Study and ADME Calculations Towards Breast Cancer Targeting” (Bioorg Med Chem Lett, 2020).

What was measured:
HCT-116 = assay: cells; details: Homo sapiens, HCT-116, 48 h
Description: Antiproliferative activity against human HCT116 cells assessed as reduction in cell viability after 48 hrs by MTT assay

HeLa = assay: Antiproliferative activity against human HeLa cells assessed as reduction in cell viability after 48 hrs by MTT assay; assay type: functional, cell-based
MCF7 [1] = assay: Antiproliferative activity against human MCF7 cells assessed as reduction in cell viability after 48 hrs by MTT assay; assay type: functional, cell-based; details: MCF7, 48 h
WI-38 = assay: cells; details: Homo sapiens, WI-38, 48 h
Description: Cytotoxicity against human WI-38 cells assessed as reduction in cell viability after 48 hrs by MTT assay

Heat shock protein HSP90 = Heat shock protein HSP90 (Homo sapiens, UniProt P07900+P08238); assay: Inhibition of HSP90 ATPase activity (unknown origin); assay type: protein assay
MCF7 [2] = assay: Induction of cell cycle arrest in human MCF7 cells assessed as cell accumulation at G0/G1 phase at 2 uM after 24 hrs by PI-staining based flow cytometry (reference value: 53.72%); assay type: functional
MCF7 [3] = assay: Induction of apoptosis in human MCF7 cells assessed as early apoptotic cells at 2 uM after 24 hrs by Annexin V-FITC/propidium iodide staining based flow cytometric analysis (reference value: 0.82%); assay type: functional
MCF7 [4] = assay: Induction of cell cycle arrest in human MCF7 cells assessed as cell accumulation at G2/M phase at 2 uM after 24 hrs by PI-staining based flow cytometry (reference value: 10.84%); assay type: functional
MCF7 [5] = assay: Induction of cell cycle arrest in human MCF7 cells assessed as cell aggregates at 2 uM after 24 hrs by PI-staining based flow cytometry (reference value: 2.28%); assay type: functional
MCF7 [6] = assay: Induction of cell cycle arrest in human MCF7 cells assessed as cell accumulation at S phase at 2 uM after 24 hrs by PI-staining based flow cytometry (reference value: 35.44%); assay type: functional
MCF7 [7] = assay: Induction of apoptosis in human MCF7 cells assessed as necrotic cells at 2 uM after 24 hrs by Annexin V-FITC/propidium iodide staining based flow cytometric analysis (reference value: 0.43%); assay type: functional
MCF7 [8] = assay: Induction of apoptosis in human MCF7 cells assessed as late apoptotic cells at 2 uM after 24 hrs by Annexin V-FITC/propidium iodide staining based flow cytometric analysis (reference value: 0.39%); assay type: functional
MCF7 [9] = assay: Induction of cell cycle arrest in human MCF7 cells assessed as cell accumulation at Pre-G1 phase at 2 uM after 24 hrs by PI-staining based flow cytometry (reference value: 1.64%); assay type: functional
MCF7 [10] = assay: Induction of cell cycle arrest in human MCF7 cells assessed as debris content at 2 uM after 24 hrs by PI-staining based flow cytometry (reference value: 2.09%); assay type: functional

Compound | IC50 (HCT-116) [µM] | IC50 (HeLa) [µM] | IC50 (MCF7 [1]) [µM] | IC50 (WI-38) [µM] | also measured
O=c1c2ccccc2nc(SCCCCl)n1-c1ccccc1 | 23.2 | 16.7 | 12.6 | 36.7 | –
CCOc1ccccc1N1CCN(C(=S)SCCCSc2nc3ccccc3c(=O)n2-c2ccccc2)CC1 | 18.1 | 20.6 | 9.48 | 33.3 | IC50 (Heat shock protein HSP90): 3.41 µM
O=c1c2ccccc2nc(SCCCSC(=S)N2CCN(C3CCCCC3)CC2)n1-c1ccccc1 | 73.8 | 64.5 | 45.9 | > 100 | –
O=c1c2ccccc2nc(SCCCSC(=S)N2CCCCC2)n1-c1ccccc1 | 63.4 | 50.3 | 38.5 | > 100 | –
CC(C)(C)OC(=O)N1CCN(C(=O)CSc2nc3ccccc3c(=O)n2-c2ccccc2)CC1 | 48.3 | 34.5 | 25.9 | 62.6 | –
O=C(CSc1nc2ccccc2c(=O)n1-c1ccccc1)N1CCN(C2CCCCC2)CC1 | 60.9 | 53.6 | 35.9 | 78.4 | –
O=C(CSc1nc2ccccc2c(=O)n1-c1ccccc1)N1CCOCC1 | 19.8 | 18.2 | 11.7 | 16 | IC50 (Heat shock protein HSP90): 3.21 µM
O=C(CSc1nc2ccccc2c(=O)n1-c1ccccc1)N1CCN(c2ncccn2)CC1 | 78.7 | 76.9 | 47.5 | 94.5 | –
O=C(CSc1nc2ccccc2c(=O)n1-c1ccccc1)N1CCCCC1 | 25.3 | 22.5 | 13.8 | 65 | –
CC(=O)N1CCN(C(=S)SCCCSc2nc3ccccc3c(=O)n2-c2ccccc2)CC1 | 37 | 54.9 | 22.4 | > 100 | –
C=CCN1CCN(C(=O)CSc2nc3ccccc3c(=O)n2-c2ccccc2)CC1 | 15.7 | 13.4 | 8.56 | 12.2 | Activity (MCF7 [2]): 31.59%; Activity (MCF7 [3]): 4.94%; Activity (MCF7 [4]): 38.89%; Activity (MCF7 [5]): 2.21%; Activity (MCF7 [6]): 29.52%; Activity (MCF7 [7]): 2.31%; IC50 (Heat shock protein HSP90): 1.58 µM; Activity (MCF7 [8]): 15.17%; Activity (MCF7 [9]): 22.42%; Activity (MCF7 [10]): 2.63%
CC(=O)N1CCN(C(=O)CSc2nc3ccccc3c(=O)n2-c2ccccc2)CC1 | 10.3 | 12 | 7.35 | 16 | IC50 (Heat shock protein HSP90): 14.36 µM
C=CCN1CCN(C(=S)SCCCSc2nc3ccccc3c(=O)n2-c2ccccc2)CC1 | 32.1 | 28.7 | 17.8 | 82.5 | –
O=c1c2ccccc2nc(SCCCSC(=S)N2CCN(c3ncccn3)CC2)n1-c1ccccc1 | 79.6 | 74.4 | 49.3 | > 100 | –
CCN1CCN(C(=S)SCCCSc2nc3ccccc3c(=O)n2-c2ccccc2)CC1 | 88 | 79.6 | 64.3 | > 100 | –
CN1CCN(C(=S)SCCCSc2nc3ccccc3c(=O)n2-c2ccccc2)CC1 | 32.8 | 33.3 | 19.3 | 70.5 | –
O=c1c2ccccc2nc(SCCCSC(=S)N2CCN(c3ccccc3)CC2)n1-c1ccccc1 | 27.6 | 26.1 | 15.5 | 29.8 | –
CCN1CCN(C(=O)CSc2nc3ccccc3c(=O)n2-c2ccccc2)CC1 | 44.3 | 37.5 | 23.9 | 82 | –
